Experimental data from ChEMBL document CHEMBL4507315 (2021).

Key:
[1] = system: Tyrosine-protein kinase ABL1 (Homo sapiens), P00519 [Q252H]; conditions: Compound concentration 100.0 nM
[2] = biological target: Myosin light chain kinase 2, skeletal/cardiac muscle (Homo sapiens) (UniProt Q9H1R3); conditions: Compound concentration 100.0 nM
[3] = biological target: Mitogen-activated protein kinase kinase kinase 15 (Homo sapiens) (UniProt Q6ZN16); conditions: Compound concentration 100.0 nM
[4] = biological target: Cyclin-dependent kinase 11A (Homo sapiens) (UniProt Q9UQ88); conditions: Compound concentration 100.0 nM
[5] = biological target: Glycogen synthase kinase-3 alpha (Homo sapiens) (UniProt P49840); conditions: Compound concentration 100.0 nM
[6] = biological target: Tyrosine-protein kinase ZAP-70 (Homo sapiens) (UniProt P43403); conditions: Compound concentration 100.0 nM
[7] = biological target: Misshapen-like kinase 1 (Homo sapiens) (UniProt Q8N4C8); conditions: Compound concentration 100.0 nM
[8] = system: Phosphatidylinositol 4,5-bisphosphate 3-kinase catalytic subunit alpha isoform (Homo sapiens), P42336 [I800L]; conditions: Compound concentration 100.0 nM
[9] = biological target: Alpha-2C adrenergic receptor (Homo sapiens) (UniProt P18825); conditions: Compound concentration 10.0 uM
[10] = biological target: Serine/threonine-protein kinase VRK2 (Homo sapiens) (UniProt Q86Y07); conditions: Compound concentration 100.0 nM
[11] = system: Mast/stem cell growth factor receptor Kit (Homo sapiens), P10721 [D816V]; conditions: Compound concentration 100.0 nM
[12] = biological target: BDNF/NT-3 growth factors receptor (Homo sapiens) (UniProt Q16620); conditions: Compound concentration 100.0 nM
[13] = biological target: Phosphorylase b kinase gamma catalytic chain, skeletal muscle/heart isoform (Homo sapiens) (UniProt Q16816); conditions: Compound concentration 100.0 nM
[14] = biological target: Ephrin type-B receptor 6 (Homo sapiens) (UniProt O15197); conditions: Compound concentration 100.0 nM
[15] = biological target: 5-hydroxytryptamine receptor 3A (Homo sapiens) (UniProt P46098); conditions: Compound concentration 10.0 uM
[16] = biological target: 5-hydroxytryptamine receptor 2B (Homo sapiens) (UniProt P41595); conditions: Compound concentration 10.0 uM
[17] = biological target: Mast/stem cell growth factor receptor Kit (Homo sapiens) (UniProt P10721); conditions: Compound concentration 100.0 nM
[18] = biological target: Serine/threonine-protein kinase Sgk3 (Homo sapiens) (UniProt Q96BR1); conditions: Compound concentration 100.0 nM
[19] = biological target: Serine/threonine-protein kinase PAK 6 (Homo sapiens) (UniProt Q9NQU5); conditions: Compound concentration 100.0 nM
Serine/threonine-protein kinase PAK 6 (Homo sapiens), sequence (Q9NQU5 whole entry, looked up): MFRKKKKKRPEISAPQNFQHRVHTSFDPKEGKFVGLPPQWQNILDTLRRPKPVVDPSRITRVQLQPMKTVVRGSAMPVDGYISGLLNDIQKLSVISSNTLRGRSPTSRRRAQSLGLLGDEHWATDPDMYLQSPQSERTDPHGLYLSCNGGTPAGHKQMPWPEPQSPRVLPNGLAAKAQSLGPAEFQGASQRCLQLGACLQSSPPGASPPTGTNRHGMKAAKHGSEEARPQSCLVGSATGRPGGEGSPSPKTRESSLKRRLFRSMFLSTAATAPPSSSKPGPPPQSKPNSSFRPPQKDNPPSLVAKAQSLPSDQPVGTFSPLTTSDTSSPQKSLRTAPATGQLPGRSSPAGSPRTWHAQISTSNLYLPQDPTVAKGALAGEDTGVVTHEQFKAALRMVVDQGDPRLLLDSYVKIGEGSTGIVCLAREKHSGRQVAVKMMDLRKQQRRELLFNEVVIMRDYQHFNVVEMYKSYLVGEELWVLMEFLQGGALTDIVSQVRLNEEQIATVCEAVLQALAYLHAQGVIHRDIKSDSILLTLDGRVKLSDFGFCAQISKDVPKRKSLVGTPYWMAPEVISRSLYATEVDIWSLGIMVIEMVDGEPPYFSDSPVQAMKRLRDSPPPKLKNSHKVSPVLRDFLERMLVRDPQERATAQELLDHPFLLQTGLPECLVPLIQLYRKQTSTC

[20] = biological target: Atypical kinase COQ8B, mitochondrial (Homo sapiens) (UniProt Q96D53); conditions: Compound concentration 100.0 nM
[21] = biological target: Bone morphogenetic protein receptor type-1B (Homo sapiens) (UniProt O00238); conditions: Compound concentration 100.0 nM
[22] = biological target: Tyrosine-protein kinase Lyn (Homo sapiens) (UniProt P07948); conditions: Compound concentration 100.0 nM
[23] = biological target: Cyclin-dependent kinase 11B (Homo sapiens) (UniProt P21127); conditions: Compound concentration 100.0 nM
Cyclin-dependent kinase 11B (Homo sapiens), sequence (P21127 whole entry): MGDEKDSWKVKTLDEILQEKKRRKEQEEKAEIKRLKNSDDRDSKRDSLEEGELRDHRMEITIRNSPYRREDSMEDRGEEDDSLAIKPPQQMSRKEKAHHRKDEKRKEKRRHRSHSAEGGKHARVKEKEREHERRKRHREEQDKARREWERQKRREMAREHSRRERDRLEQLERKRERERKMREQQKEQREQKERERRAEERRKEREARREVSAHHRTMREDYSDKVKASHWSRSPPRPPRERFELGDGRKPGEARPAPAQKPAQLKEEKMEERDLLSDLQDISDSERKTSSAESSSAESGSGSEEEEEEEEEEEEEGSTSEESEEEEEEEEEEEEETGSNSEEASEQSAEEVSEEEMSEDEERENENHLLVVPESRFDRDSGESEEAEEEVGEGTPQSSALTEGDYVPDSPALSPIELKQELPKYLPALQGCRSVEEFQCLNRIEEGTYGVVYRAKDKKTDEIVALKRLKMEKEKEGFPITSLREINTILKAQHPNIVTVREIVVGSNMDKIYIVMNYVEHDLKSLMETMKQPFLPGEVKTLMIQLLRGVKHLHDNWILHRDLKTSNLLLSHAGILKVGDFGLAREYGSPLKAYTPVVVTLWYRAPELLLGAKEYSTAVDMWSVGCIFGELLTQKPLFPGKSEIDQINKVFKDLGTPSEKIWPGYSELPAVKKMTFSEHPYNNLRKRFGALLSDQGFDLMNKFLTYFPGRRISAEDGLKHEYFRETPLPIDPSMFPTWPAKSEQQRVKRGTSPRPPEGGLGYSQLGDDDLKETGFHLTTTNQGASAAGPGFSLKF

[24] = biological target: Activin receptor type-1-like (Homo sapiens) (UniProt P37023); conditions: Compound concentration 100.0 nM
[25] = system: Receptor-type tyrosine-protein kinase FLT3 (Homo sapiens), P36888 [UNDEFINED MUTATION]; conditions: Compound concentration 100.0 nM
[26] = biological target: Ephrin type-A receptor 8 (Homo sapiens) (UniProt P29322); conditions: Compound concentration 100.0 nM
[27] = biological target: Proto-oncogene tyrosine-protein kinase ROS (Homo sapiens) (UniProt P08922); conditions: Compound concentration 100.0 nM
[28] = biological target: Ribosomal protein S6 kinase alpha-1 (Homo sapiens) (UniProt Q15418); conditions: Compound concentration 100.0 nM
[29] = system: Receptor-type tyrosine-protein kinase FLT3 (Homo sapiens), P36888 [D835V]; conditions: Compound concentration 100.0 nM
[30] = biological target: Serine/threonine-protein kinase Nek9 (Homo sapiens) (UniProt Q8TD19); conditions: Compound concentration 100.0 nM
Serine/threonine-protein kinase Nek9 (Homo sapiens), sequence (Q8TD19 whole entry): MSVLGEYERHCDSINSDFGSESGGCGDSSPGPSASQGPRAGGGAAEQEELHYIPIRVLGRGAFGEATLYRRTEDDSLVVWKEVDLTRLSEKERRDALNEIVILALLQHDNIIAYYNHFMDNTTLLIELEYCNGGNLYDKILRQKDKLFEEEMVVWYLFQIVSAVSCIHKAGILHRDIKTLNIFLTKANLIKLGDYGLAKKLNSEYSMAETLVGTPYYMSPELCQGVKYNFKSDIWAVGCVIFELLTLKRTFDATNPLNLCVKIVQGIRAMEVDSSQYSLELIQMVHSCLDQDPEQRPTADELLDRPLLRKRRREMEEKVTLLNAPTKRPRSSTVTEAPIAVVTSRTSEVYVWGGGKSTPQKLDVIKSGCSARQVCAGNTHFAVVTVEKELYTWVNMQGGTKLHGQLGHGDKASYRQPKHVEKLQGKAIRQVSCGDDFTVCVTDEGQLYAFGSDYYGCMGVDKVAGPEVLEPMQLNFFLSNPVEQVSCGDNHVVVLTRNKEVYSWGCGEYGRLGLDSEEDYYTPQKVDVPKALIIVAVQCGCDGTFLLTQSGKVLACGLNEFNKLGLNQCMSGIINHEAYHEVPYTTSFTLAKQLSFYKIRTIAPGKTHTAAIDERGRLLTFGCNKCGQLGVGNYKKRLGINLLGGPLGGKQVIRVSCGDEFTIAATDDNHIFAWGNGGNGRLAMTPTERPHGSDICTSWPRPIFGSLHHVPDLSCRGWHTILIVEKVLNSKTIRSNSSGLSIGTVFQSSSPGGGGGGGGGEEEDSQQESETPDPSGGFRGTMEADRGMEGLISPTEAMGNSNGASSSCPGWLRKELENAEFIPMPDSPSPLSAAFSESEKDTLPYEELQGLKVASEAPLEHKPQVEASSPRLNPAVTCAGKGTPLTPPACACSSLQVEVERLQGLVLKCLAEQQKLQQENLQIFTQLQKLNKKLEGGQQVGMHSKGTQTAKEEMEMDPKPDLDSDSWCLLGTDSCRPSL

[31] = biological target: Mitogen-activated protein kinase 12 (Homo sapiens) (UniProt P53778); conditions: Compound concentration 100.0 nM
[32] = biological target: Cyclin-dependent kinase-like 1 (Homo sapiens) (UniProt Q00532); conditions: Compound concentration 100.0 nM
Cyclin-dependent kinase-like 1 (Homo sapiens), sequence (Q00532 whole entry): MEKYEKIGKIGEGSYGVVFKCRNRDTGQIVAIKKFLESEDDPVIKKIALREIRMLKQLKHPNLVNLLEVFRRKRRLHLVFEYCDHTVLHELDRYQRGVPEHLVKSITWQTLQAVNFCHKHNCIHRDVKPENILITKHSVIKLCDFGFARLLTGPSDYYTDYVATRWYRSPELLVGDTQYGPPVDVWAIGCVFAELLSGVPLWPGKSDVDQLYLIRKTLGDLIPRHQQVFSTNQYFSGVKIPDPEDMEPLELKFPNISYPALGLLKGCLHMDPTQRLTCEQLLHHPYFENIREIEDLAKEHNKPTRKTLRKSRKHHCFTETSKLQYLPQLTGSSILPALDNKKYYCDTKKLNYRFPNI

[33] = biological target: Ribosomal protein S6 kinase alpha-4 (Homo sapiens) (UniProt O75676); conditions: Compound concentration 100.0 nM
[34] = biological target: Vascular endothelial growth factor receptor 2 (Homo sapiens) (UniProt P35968); conditions: Compound concentration 100.0 nM
[35] = biological target: Serine/threonine-protein kinase D3 (Homo sapiens) (UniProt O94806); conditions: Compound concentration 100.0 nM
[36] = system: Epidermal growth factor receptor (Homo sapiens), P00533 [UNDEFINED MUTATION]; conditions: Compound concentration 100.0 nM
[37] = biological target: Platelet-derived growth factor receptor beta (Homo sapiens) (UniProt P09619); conditions: Compound concentration 100.0 nM
[38] = system: ALK tyrosine kinase receptor (Homo sapiens), Q9UM73 [C1156Y]; conditions: Compound concentration 100.0 nM
[39] = biological target: Protein kinase C delta type (Homo sapiens) (UniProt Q05655); conditions: Compound concentration 100.0 nM
[40] = biological target: Ribosomal protein S6 kinase alpha-5 (Homo sapiens) (UniProt O75582); conditions: Compound concentration 100.0 nM
Ribosomal protein S6 kinase alpha-5 (Homo sapiens), sequence (O75582 whole entry, looked up): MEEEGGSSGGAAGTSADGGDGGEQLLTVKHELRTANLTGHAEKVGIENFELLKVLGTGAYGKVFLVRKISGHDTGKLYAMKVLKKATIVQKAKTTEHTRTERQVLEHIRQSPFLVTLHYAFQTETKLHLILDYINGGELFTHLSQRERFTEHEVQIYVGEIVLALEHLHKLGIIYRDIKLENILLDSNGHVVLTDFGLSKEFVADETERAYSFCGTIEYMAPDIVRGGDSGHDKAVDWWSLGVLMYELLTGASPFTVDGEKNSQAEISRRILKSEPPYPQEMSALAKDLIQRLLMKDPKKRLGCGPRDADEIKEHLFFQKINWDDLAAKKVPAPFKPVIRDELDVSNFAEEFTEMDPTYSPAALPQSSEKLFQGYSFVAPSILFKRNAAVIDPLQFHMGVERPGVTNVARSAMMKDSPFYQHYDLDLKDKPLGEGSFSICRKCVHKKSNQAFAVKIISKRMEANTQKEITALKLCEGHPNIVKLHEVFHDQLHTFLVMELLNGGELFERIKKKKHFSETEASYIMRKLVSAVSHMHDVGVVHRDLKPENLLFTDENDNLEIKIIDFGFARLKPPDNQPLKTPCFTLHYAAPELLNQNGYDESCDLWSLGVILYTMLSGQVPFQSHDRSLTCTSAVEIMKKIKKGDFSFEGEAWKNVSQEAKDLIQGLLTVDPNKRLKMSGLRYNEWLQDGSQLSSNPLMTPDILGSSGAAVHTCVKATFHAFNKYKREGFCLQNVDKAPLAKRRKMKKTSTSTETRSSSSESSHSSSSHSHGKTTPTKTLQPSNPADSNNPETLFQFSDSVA

[41] = biological target: Serine/threonine-protein kinase RIO1 (Homo sapiens) (UniProt Q9BRS2); conditions: Compound concentration 100.0 nM
Serine/threonine-protein kinase RIO1 (Homo sapiens), sequence (Q9BRS2 whole entry): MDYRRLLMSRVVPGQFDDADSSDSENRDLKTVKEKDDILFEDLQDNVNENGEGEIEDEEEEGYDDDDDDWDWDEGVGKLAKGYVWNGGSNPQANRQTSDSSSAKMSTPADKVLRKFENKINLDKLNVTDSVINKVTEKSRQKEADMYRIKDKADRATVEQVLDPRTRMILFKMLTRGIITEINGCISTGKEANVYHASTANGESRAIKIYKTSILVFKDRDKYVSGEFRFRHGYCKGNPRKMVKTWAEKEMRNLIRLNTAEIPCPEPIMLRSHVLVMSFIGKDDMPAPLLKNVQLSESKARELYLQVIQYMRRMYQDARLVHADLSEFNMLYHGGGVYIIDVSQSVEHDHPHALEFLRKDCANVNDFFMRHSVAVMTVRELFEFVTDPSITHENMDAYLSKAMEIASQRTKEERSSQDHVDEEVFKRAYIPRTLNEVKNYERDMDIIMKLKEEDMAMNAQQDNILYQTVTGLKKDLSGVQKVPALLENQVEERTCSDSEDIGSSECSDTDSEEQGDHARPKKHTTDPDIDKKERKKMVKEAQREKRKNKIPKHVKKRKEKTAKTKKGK

[42] = biological target: Muscarinic acetylcholine receptor M2 (Homo sapiens) (UniProt P08172); conditions: Compound concentration 10.0 uM
[43] = biological target: Serine/threonine-protein kinase DCLK2 (Homo sapiens) (UniProt Q8N568); conditions: Compound concentration 100.0 nM
[44] = biological target: D(1A) dopamine receptor (Homo sapiens) (UniProt P21728); conditions: Compound concentration 10.0 uM
[45] = biological target: Cytoplasmic tyrosine-protein kinase BMX (Homo sapiens) (UniProt P51813); conditions: Compound concentration 100.0 nM
Cytoplasmic tyrosine-protein kinase BMX (Homo sapiens), sequence (P51813 whole entry): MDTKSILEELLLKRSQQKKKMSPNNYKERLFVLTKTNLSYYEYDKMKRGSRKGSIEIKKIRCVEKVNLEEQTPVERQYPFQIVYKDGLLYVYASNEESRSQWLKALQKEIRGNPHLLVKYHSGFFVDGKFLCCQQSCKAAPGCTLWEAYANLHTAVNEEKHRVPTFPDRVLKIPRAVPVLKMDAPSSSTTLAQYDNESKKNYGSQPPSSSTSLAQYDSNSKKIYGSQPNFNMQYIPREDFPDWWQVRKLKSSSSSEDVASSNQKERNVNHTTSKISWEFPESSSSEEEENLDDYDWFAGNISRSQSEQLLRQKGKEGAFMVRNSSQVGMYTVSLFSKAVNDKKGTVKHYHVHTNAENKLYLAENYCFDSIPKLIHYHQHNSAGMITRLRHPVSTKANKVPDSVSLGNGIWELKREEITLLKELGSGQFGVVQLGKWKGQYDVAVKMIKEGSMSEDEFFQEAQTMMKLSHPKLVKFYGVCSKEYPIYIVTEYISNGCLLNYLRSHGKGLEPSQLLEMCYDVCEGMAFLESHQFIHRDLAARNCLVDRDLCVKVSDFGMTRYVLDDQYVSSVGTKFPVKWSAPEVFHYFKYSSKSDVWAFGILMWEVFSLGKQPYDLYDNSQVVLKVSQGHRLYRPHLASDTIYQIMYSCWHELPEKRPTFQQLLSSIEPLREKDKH

Nc1c(C(=O)NCc2ccc(C(=O)NCCCC3CCCCC3)cc2)cnn1-c1ccccc1 [SR-318]
inactive: residual activity [1] 98% | residual activity [2] 100% | residual activity [3] 100% | residual activity [4] 100% | residual activity [5] 100% | residual activity [6] 100% | residual activity [7] 100% | residual activity [8] 96% | inhibition [9] 18.1% | residual activity [10] 92% | residual activity [11] 100% | residual activity [12] 85% | residual activity [13] 90% | residual activity [14] 100% | inhibition [15] -0.42% | inhibition [16] 19.9% | residual activity [17] 100% | residual activity [18] 90% | residual activity [19] 100% | residual activity [20] 100% | residual activity [21] 100% | residual activity [22] 100% | residual activity [23] 100% | residual activity [24] 100% | residual activity [25] 90% | residual activity [26] 100% | residual activity [27] 83% | residual activity [28] 92% | residual activity [29] 100% | residual activity [30] 100% | residual activity [31] 100% | residual activity [32] 100% | residual activity [33] 98% | residual activity [34] 100% | residual activity [35] 92% | residual activity [36] 100% | residual activity [37] 100% | residual activity [38] 100% | residual activity [39] 88% | residual activity [41] 95% | inhibition [42] 22.5% | residual activity [43] 100% | inhibition [44] -5.64% | residual activity [45] 100%
active: residual activity [40] 23%

O=C(NCCCC1CCCCC1)c1ccc(CNC(=O)c2cnn(-c3ccccc3)c2C(F)(F)F)cc1 [SR-321]
inactive: residual activity [1] 98% | residual activity [2] 100% | residual activity [3] 84% | residual activity [4] 100% | residual activity [5] 100% | residual activity [6] 100% | residual activity [7] 97% | residual activity [8] 70% | inhibition [9] 3.68% | residual activity [10] 100% | residual activity [11] 100% | residual activity [12] 100% | residual activity [13] 100% | residual activity [14] 100% | inhibition [15] 5.72% | inhibition [16] 3.69% | residual activity [17] 100% | residual activity [18] 92% | residual activity [19] 100% | residual activity [20] 100% | residual activity [21] 92% | residual activity [22] 100% | residual activity [23] 100% | residual activity [24] 100% | residual activity [25] 100% | residual activity [26] 95% | residual activity [27] 100% | residual activity [28] 100% | residual activity [29] 88% | residual activity [30] 100% | residual activity [31] 100% | residual activity [32] 80% | residual activity [33] 90% | residual activity [34] 97% | residual activity [35] 99% | residual activity [36] 99% | residual activity [37] 100% | residual activity [38] 100% | residual activity [39] 100% | residual activity [40] 82% | residual activity [41] 100% | inhibition [42] 19.3% | residual activity [43] 100% | inhibition [44] 5.56% | residual activity [45] 75%
